# Experimental data reported in PubChem BioAssay AID1259407 (Chemical Carcinogenesis Research Information System (CCRIS), 2018).
# Activity calls are given as the source filed them. How the calls were made is not given here.
# Test system: CCRIS mutagenicity, Ames/micronucleus/aberration tests
# Experiment: CCRIS mutagenicity studies
smiles,measurement,setting,value
ClCCl,mutagenic call,"End Point: IN VITRO CHROMOSOMAL ABERRATIONS, Test System: CHO CELLS, Metabolic Activation: NONE",inactive; negative
same,mutagenic call,"End Point: IN VITRO CHROMOSOMAL ABERRATIONS, Test System: CHO CELLS, Metabolic Activation: RAT, LIVER, S-9, AROCLOR 1254",inactive; negative
same,mutagenic call,"Test System: AMES SALMONELLA TYPHIMURIUM, Strain/Indicator: NG54 (GSH), Metabolic Activation: GLUTATHIONE",active; positive
same,mutagenic call,"Test System: AMES SALMONELLA TYPHIMURIUM, Strain/Indicator: NG54 (GSH), Metabolic Activation: NONE",active; positive
same,mutagenic call,"Test System: AMES SALMONELLA TYPHIMURIUM, Strain/Indicator: NG54 (GSH), Metabolic Activation: RAT, LIVER, S-9, AROCLOR 1254",active; positive
same,mutagenic call,"Test System: AMES SALMONELLA TYPHIMURIUM, Strain/Indicator: NG54 (GSH), Metabolic Activation: RAT, LIVER, S-9, AROCLOR 1254, GLUTATHIONE",active; positive
same,mutagenic call,"Test System: AMES SALMONELLA TYPHIMURIUM, Strain/Indicator: NG-11, Metabolic Activation: GLUTATHIONE, Method: DESICCATOR",active; positive
same,mutagenic call,"Test System: AMES SALMONELLA TYPHIMURIUM, Strain/Indicator: NG-11, Metabolic Activation: NONE, Method: DESICCATOR",active; positive
same,mutagenic call,"Test System: AMES SALMONELLA TYPHIMURIUM, Strain/Indicator: RSJ100, Metabolic Activation: NONE, Method: STANDARD PLATE",active; positive
same,mutagenic call,"Test System: AMES SALMONELLA TYPHIMURIUM, Strain/Indicator: TA97, Metabolic Activation: NONE, Method: STANDARD PLATE",active; positive
same,mutagenic call,"Test System: AMES SALMONELLA TYPHIMURIUM, Strain/Indicator: TA97, Metabolic Activation: RAT, LIVER, S-9, AROCLOR 1254, Method: STANDARD PLATE",active; positive
same,mutagenic call,"Test System: AMES SALMONELLA TYPHIMURIUM, Strain/Indicator: TA98, Metabolic Activation: NONE, Method: GAS EXPOSURE",active; positive
same,mutagenic call,"Test System: AMES SALMONELLA TYPHIMURIUM, Strain/Indicator: TA98, Metabolic Activation: NONE, Method: STANDARD PLATE",inactive; negative
same,mutagenic call,"Test System: AMES SALMONELLA TYPHIMURIUM, Strain/Indicator: TA98, Metabolic Activation: RAT, LIVER, S-9, AROCLOR 1254, Method: STANDARD PLATE",active; positive
same,mutagenic call,"Test System: AMES SALMONELLA TYPHIMURIUM, Strain/Indicator: TA98, Metabolic Activation: RAT, LIVER, S-9, PHENOBARBITAL AND BETA-NAPHTHOFLAVONE, Method: GAS EXPOSURE",active; positive
same,mutagenic call,"Test System: AMES SALMONELLA TYPHIMURIUM, Strain/Indicator: TA98, Metabolic Activation: RAT, LIVER, S-9, PHENOBARBITAL, Method: DESICCATOR",active; positive
same,mutagenic call,"Test System: AMES SALMONELLA TYPHIMURIUM, Strain/Indicator: TA100, Metabolic Activation: GLUTATHIONE",active; positive
same,mutagenic call,"Test System: AMES SALMONELLA TYPHIMURIUM, Strain/Indicator: TA100, Metabolic Activation: GLUTATHIONE, Method: DESICCATOR",active; positive
same,mutagenic call,"Test System: AMES SALMONELLA TYPHIMURIUM, Strain/Indicator: TA100, Metabolic Activation: NONE",active; positive
same,mutagenic call,"Test System: AMES SALMONELLA TYPHIMURIUM, Strain/Indicator: TA100, Metabolic Activation: NONE, Method: DESICCATOR",active; positive
same,mutagenic call,"Test System: AMES SALMONELLA TYPHIMURIUM, Strain/Indicator: TA100, Metabolic Activation: NONE, Method: GAS EXPOSURE",active; positive
same,mutagenic call,"Test System: AMES SALMONELLA TYPHIMURIUM, Strain/Indicator: TA100, Metabolic Activation: RAT, LIVER, MICROSOMES, AROCLOR 1254",active; positive
same,mutagenic call,"Test System: AMES SALMONELLA TYPHIMURIUM, Strain/Indicator: TA100, Metabolic Activation: RAT, LIVER, S-9, AROCLOR 1254",active; positive
same,mutagenic call,"Test System: AMES SALMONELLA TYPHIMURIUM, Strain/Indicator: TA100, Metabolic Activation: RAT, LIVER, S-9, AROCLOR 1254, GLUTATHIONE",active; positive
same,mutagenic call,"Test System: AMES SALMONELLA TYPHIMURIUM, Strain/Indicator: TA100, Metabolic Activation: RAT, LIVER, S-9, AROCLOR 1254, Method: STANDARD PLATE",active; positive
same,mutagenic call,"Test System: AMES SALMONELLA TYPHIMURIUM, Strain/Indicator: TA100, Metabolic Activation: RAT, LIVER, S-9, PHENOBARBITAL AND BETA-NAPHTHOFLAVONE, Method: GAS EXPOSURE",active; positive
same,mutagenic call,"Test System: AMES SALMONELLA TYPHIMURIUM, Strain/Indicator: TA100, Metabolic Activation: RAT, LIVER, S-9, PHENOBARBITAL, Method: DESICCATOR",active; positive
same,mutagenic call,"Test System: AMES SALMONELLA TYPHIMURIUM, Strain/Indicator: TA100, Metabolic Activation: RAT, LIVER, S-100, AROCLOR 1254",active; positive
same,mutagenic call,"Test System: AMES SALMONELLA TYPHIMURIUM, Strain/Indicator: TA102, Metabolic Activation: NONE, Method: STANDARD PLATE",inactive; negative
same,mutagenic call,"Test System: AMES SALMONELLA TYPHIMURIUM, Strain/Indicator: TA104, Metabolic Activation: NONE, Method: STANDARD PLATE",active; positive
